≈ marks a conversion by molar mass, not a printed value.
Legend:
[1] = tested on: Top10 E. coli; assay: OD600 measurement of bacterial growth in LB media with PQQ, Top10 E. coli; format: cell-based; conditions: 37 degree C
Experimental: (§1) In one experiment, Top 10 E. coli and Ampicillin resistant (AmpR) E. coli are selected as bacterial samples. These bacterial samples are cultured separately in LB media in a number of tubes with various purified PQQ concentrations. LB media is prepared as following: Ten gram Bacto-tryptone, 5 g yeast extract and 10 g NaCl are added to 800 ml distilled H2O. The pH of the solution is adjusted to 7.5 with NaOH, and the final volume is adjusted to 1 L with distilled H2O. The LB media is autoclaved and filtered to be sterilized. The PQQ concentration range is prepared between 0 to 100 mg/Liter of LB media in the number of the tubes. The bacterial samples are inoculated into the tubes to the amount of 1×10^5/tube, incubated in 37 degree C. on shaking bench for designated time according to the following experiment designs. It is known that Ampicillin has no effect to the growth of Ampicillin resistant E. coli but can inhibit other bacteria growth. Therefore, the data from the Ampicillin experiment are focused on AmpR E. coli growth. While in the case of Top10 E. coli, other types of bacteria may grow in the culture as well.
(§2) Table 1 and FIG. 1 show OD600 value of samples from Top10 E. coli and Ampicillin resistant E. coli cultured at 6, 8, and 9.5 hours. OD600 is a measurement of the optical density at 600 nm wavelength light of a liquid media. The optical density is related to the amount of particle scattering of light. In this case, a high optical density indicates a large number of bacteria in the cultural sample, and OD600 datas are used in this invention disclosure as indication of numbers of bacteria in the liquid media, which is a standard method to monitor microorganism growth. The OD600 of cultured microorganism in liquid media is measured by photometer, using blank media as blank reference. To convert OD600 to the number of microorganism such as E. coli in the culture media, the converting formula is 1 OD=3.8×10^8. OD600 is a well known technique of monitoring bacterial growth to those of skilled in the art and so is not discussed further here.

[2] = tested on: Ampicillin resistant (AmpR) E. coli; assay: OD600 measurement of bacterial growth in LB media with PQQ, Ampicillin resistant E. coli; format: cell-based; conditions: for OD600: AmpR, LB media, 37 degree C
Experimental: as §1, §2

[3] = tested on: bacteria in non-pasteurized cow milk; assay: OD600 of PQQ fortified non-pasteurized cow milk (FIG. 2); format: cell-based; conditions: PQQ 0, 0.1, 1, 10 mg/L, after 6 and 9 hour mixing at 37 degree C, then LB culture 24 hours
Experimental: In one embodiment of the present invention, the inhibition effect of purified PQQ to the growth of bacterial is utilized to preserve food products. […] The samples were prepared with purified PQQ concentration level of 0, 0.1, 1, and 10 mg/L. Next, the samples were shaken at 37 degree C. for 3, 6, and 9 hours, and then saved in a refrigerator under 4 degree C. On the next day, liquid culture media LB was added into the samples, followed by the samples cultured in shake flask for the next 24 hours and ready for OD600 test.
FIG. 2 presents the OD600 value as a function of purified PQQ concentration measured from the samples shake flask for 3, 6, and 9 hours.

[4] = Solubility of PQQ in water solution; format: physicochemical; conditions: 20 °C, aqueous buffer; 20-25 degree C., pH 7.0 water solution
[5] = Isoelectric point of PQQ; format: physicochemical
[6] = tested on: DNA; conditions: 10 μM PQQ (3.3 mg/L), dependent on presence of NADH and Cu (II); cited from earlier work

O=C(O)c1cc(C(=O)O)c2c(n1)C(=O)C(=O)c1cc(C(=O)O)[nH]c1-2 [PQQ, Pyrroloquinoline quinone]
OD600 ([1]; PQQ 0.1 mg/L, 6 Hours): 0.303
OD600 ([1]; PQQ 0.1 mg/L, 8 Hours): 0.416
OD600 ([1]; PQQ 0.1 mg/L, 9.5 Hours): 0.451
OD600 ([1]; PQQ 1 mg/L, 6 Hours): 0.293
OD600 ([1]; PQQ 1 mg/L, 8 Hours): 0.445
OD600 ([1]; PQQ 1 mg/L, 9.5 Hours): 0.452
OD600 ([1]; PQQ 25 mg/L, 6 Hours): 0.251
OD600 ([1]; PQQ 25 mg/L, 8 Hours): 0.433
OD600 ([1]; PQQ 25 mg/L, 9.5 Hours): 0.472
OD600 ([1]; PQQ 50 mg/L, 6 Hours): 0.208
OD600 ([1]; PQQ 50 mg/L, 8 Hours): 0.413
OD600 ([1]; PQQ 50 mg/L, 9.5 Hours): 0.457
OD600 ([1]; PQQ 75 mg/L, 6 Hours): 0.165
OD600 ([1]; PQQ 75 mg/L, 8 Hours): 0.386
OD600 ([1]; PQQ 75 mg/L, 9.5 Hours): 0.446
OD600 ([1]; PQQ 100 mg/L, 6 Hours): 0.163
OD600 ([1]; PQQ 100 mg/L, 8 Hours): 0.378
OD600 ([1]; PQQ 100 mg/L, 9.5 Hours): 0.431
number of E. coli in AmpR sample (general trend, FIG. 1 and table 1) ([2]; PQQ 0 to 100 mg/Liter of LB media, 6, 8, 9.5 hours): decreases as the concentration of purified PQQ increases
OD600 ([2]; PQQ 0.1 mg/L, 6 Hours): 0.143
OD600 ([2]; PQQ 0.1 mg/L, 8 Hours): 0.331
OD600 ([2]; PQQ 0.1 mg/L, 9.5 Hours): 0.401
OD600 ([2]; PQQ 1 mg/L, 6 Hours): 0.145
OD600 ([2]; PQQ 1 mg/L, 8 Hours): 0.335
OD600 ([2]; PQQ 1 mg/L, 9.5 Hours): 0.408
OD600 ([2]; PQQ 25 mg/L, 6 Hours): 0.087
OD600 ([2]; PQQ 25 mg/L, 8 Hours): 0.268
OD600 ([2]; PQQ 25 mg/L, 9.5 Hours): 0.356
OD600 ([2]; PQQ 50 mg/L, 6 Hours): 0.052
OD600 ([2]; PQQ 50 mg/L, 8 Hours): 0.169
OD600 ([2]; PQQ 50 mg/L, 9.5 Hours): 0.298
OD600 ([2]; PQQ 75 mg/L, 6 Hours): 0.04
OD600 ([2]; PQQ 75 mg/L, 8 Hours): 0.122
OD600 ([2]; PQQ 75 mg/L, 9.5 Hours): 0.239
OD600 ([2]; PQQ 100 mg/L, 6 Hours): 0.03
OD600 ([2]; PQQ 100 mg/L, 8 Hours): 0.088
OD600 ([2]; PQQ 100 mg/L, 9.5 Hours): 0.192
amount of bacteria (OD600, FIG. 2) [3]: the amount of bacteria decreases as the purified PQQ concentration increases
solubility [4]: 1000 to 2000 µg/mL (≈ 3.03 to 6.06 mM)
isoelectric point [5]: 2.75 pH
DNA cleavage [6]: induce DNA cleavage at thymine and cytosine residue sites
